Measured values taken from patent US6448204B1, “Herbicidal 2-aryloxy-4-methyl-6-pyrazol-1-yl-pyridines” (BASF Aktiengesellschaft, priority 1999, dated 2002).

Experiments:
Assay type in all cases: in vivo
[1] = system: Stellaria media (STEME); assay: Post-emergence test; conditions: 2-4 weeks after treatment
Experimental: (§1) To evaluate their herbicidal activity, compounds according to the invention are tested using a representative range of plants:
(§2) These acetone solutions are diluted with water and the resulting formulations applied at dosage levels equivalent of about 0.025 to 0.4 kg per hectare of test compound per pot. After spraying the plants are placed on greenhouse benches and are cared for in the usual manner, commensurate with conventional greenhouse practices. From 2 to 4 weeks after treatment, the seedling plants are examined and rated according to the rating system provided above.

[2] = system: Ambrosia artemisifolia (AMBEL); assay: Post-emergence test; conditions: 2-4 weeks after treatment
Experimental: as §1, §2

[3] = system: Galium aparine (GALAP); assay: Post-emergence test; conditions: 2-4 weeks after treatment
Experimental: as §1, §2

[4] = system: Lolium multiflorum (LOLMU); assay: Post-emergence test; conditions: 2-4 weeks after treatment
Experimental: as §1, §2

[5] = system: Lamium purpureum (LAMPU); assay: Post-emergence test; conditions: 2-4 weeks after treatment
Experimental: as §1, §2

[6] = system: Setaria viridis (SETVI); assay: Post-emergence test; conditions: 2-4 weeks after treatment
Experimental: as §1, §2

[7] = system: Matricaria inodora (MATIN); assay: Post-emergence test; conditions: 2-4 weeks after treatment
Experimental: as §1, §2

[8] = system: Ipomoea hederacea (IPOHE); assay: Post-emergence test; conditions: 2-4 weeks after treatment
Experimental: as §1, §2

[9] = system: Cassia obtusifolia (CASOB); assay: Post-emergence test; conditions: 2-4 weeks after treatment
Experimental: as §1, §2

[10] = system: Alopecurus myosuroides (ALOMY); assay: Post-emergence test; conditions: 2-4 weeks after treatment
Experimental: as §1, §2

[11] = system: Abutilon theophrasti (ABUTH); assay: Post-emergence test; conditions: 2-4 weeks after treatment
Experimental: as §1, §2

[12] = system: Digitaria sanguinalis (DIGSA); assay: Post-emergence test; conditions: 2-4 weeks after treatment
Experimental: as §1, §2

[13] = system: Echinochloa crus-galli (ECHCG); assay: Post-emergence test; conditions: 2-4 weeks after treatment
Experimental: as §1, §2

[14] = system: weed species; assay: Post-emergence test, summary over all weeds
Experimental: as §1, §2

[15] = system: Zea mays (ZEAMX); assay: Pre-emergence test; conditions: crop (corn), 3 weeks after treatment
Experimental: (§3) To evaluate their herbicidal activity, compounds according to the invention are tested using a representative range of plants: […] The pre-emergence tests involve spraying a liquid formulation of the compound onto the soil in which the seeds of the plant species mentioned above has recently been sown. The soil used in the tests is a prepared horticultural loam. […] In these tests untreated sown soil are used as controls.

[16] = system: Stellaria media (STEME); assay: Pre-emergence test; conditions: 3 weeks after treatment
Experimental: as §3

[17] = system: Ambrosia artemisifolia (AMBEL); assay: Pre-emergence test; conditions: 3 weeks after treatment
Experimental: as §3

Cn1nc(C(F)(F)F)cc1Oc1cccc(-n2ccc(C(F)(F)F)n2)n1 [Comparison]
Rating STEME (post-emergence application) ([1]; 0.025 kg/ha): 7 (7 - Good herbicidal effect) | Rating STEME (post-emergence application) ([1]; 0.100 kg/ha): 9 (9 - Complete kill) | Rating STEME (post-emergence application) ([1]; 0.400 kg/ha): 9 (9 - Complete kill) | Rating AMBEL (post-emergence application) ([2]; 0.025 kg/ha): 2 (2 - Slight effect) | Rating AMBEL (post-emergence application) ([2]; 0.100 kg/ha): 6 (6 - Herbicidal effect) | Rating AMBEL (post-emergence application) ([2]; 0.400 kg/ha): 8 (8 - Approaching complete kill) | Rating GALAP (post-emergence application) ([3]; 0.025 kg/ha): 4 (4 - Injury) | Rating GALAP (post-emergence application) ([3]; 0.100 kg/ha): 6 (6 - Herbicidal effect) | Rating GALAP (post-emergence application) ([3]; 0.400 kg/ha): 8 (8 - Approaching complete kill) | Rating LOLMU (post-emergence application) ([4]; 0.025 kg/ha): 4 (4 - Injury) | Rating LOLMU (post-emergence application) ([4]; 0.100 kg/ha): 7 (7 - Good herbicidal effect) | Rating LOLMU (post-emergence application) ([4]; 0.400 kg/ha): 9 (9 - Complete kill) | Rating LAMPU (post-emergence application) ([5]; 0.025 kg/ha): 7 (7 - Good herbicidal effect) | Rating LAMPU (post-emergence application) ([5]; 0.100 kg/ha): 9 (9 - Complete kill) | Rating LAMPU (post-emergence application) ([5]; 0.400 kg/ha): 9 (9 - Complete kill) | Rating SETVI (post-emergence application) ([6]; 0.025 kg/ha): 3 (3 - Moderate effect) | Rating SETVI (post-emergence application) ([6]; 0.100 kg/ha): 6 (6 - Herbicidal effect) | Rating SETVI (post-emergence application) ([6]; 0.400 kg/ha): 8 (8 - Approaching complete kill) | Rating MATIN (post-emergence application) ([7]; 0.025 kg/ha): 4 (4 - Injury) | Rating MATIN (post-emergence application) ([7]; 0.100 kg/ha): 6 (6 - Herbicidal effect) | Rating MATIN (post-emergence application) ([7]; 0.400 kg/ha): 8 (8 - Approaching complete kill) | Rating IPOHE (post-emergence application) ([8]; 0.025 kg/ha): 5 (5 - Definite injury) | Rating IPOHE (post-emergence application) ([8]; 0.100 kg/ha): 9 (9 - Complete kill) | Rating IPOHE (post-emergence application) ([8]; 0.400 kg/ha): 9 (9 - Complete kill) | Rating CASOB (post-emergence application) ([9]; 0.025 kg/ha): 9 (9 - Complete kill) | Rating CASOB (post-emergence application) ([9]; 0.100 kg/ha): 9 (9 - Complete kill) | Rating CASOB (post-emergence application) ([9]; 0.400 kg/ha): 9 (9 - Complete kill) | Rating ALOMY (post-emergence application) ([10]; 0.025 kg/ha): 2 (2 - Slight effect) | Rating ALOMY (post-emergence application) ([10]; 0.100 kg/ha): 4 (4 - Injury) | Rating ALOMY (post-emergence application) ([10]; 0.400 kg/ha): 8 (8 - Approaching complete kill) | Rating ABUTH (post-emergence application) ([11]; 0.025 kg/ha): 3 (3 - Moderate effect) | Rating ABUTH (post-emergence application) ([11]; 0.100 kg/ha): 6 (6 - Herbicidal effect) | Rating ABUTH (post-emergence application) ([11]; 0.400 kg/ha): 8 (8 - Approaching complete kill) | Rating DIGSA (post-emergence application) ([12]; 0.025 kg/ha): 3 (3 - Moderate effect) | Rating DIGSA (post-emergence application) ([12]; 0.100 kg/ha): 6 (6 - Herbicidal effect) | Rating DIGSA (post-emergence application) ([12]; 0.400 kg/ha): 8 (8 - Approaching complete kill) | Rating ECHCG (post-emergence application) ([13]; 0.025 kg/ha): 4 (4 - Injury) | Rating ECHCG (post-emergence application) ([13]; 0.100 kg/ha): 7 (7 - Good herbicidal effect) | Rating ECHCG (post-emergence application) ([13]; 0.400 kg/ha): 9 (9 - Complete kill) | Number of weed species controlled ([14]; 0.025 kg/ha): one species | Number of weed species controlled ([14]; 0.100 kg/ha): four species | Assessment rating ZEAMX (pre-emergence application) ([15]; 0.013 kg/ha): 0 (0 - No effect) | Assessment rating ZEAMX (pre-emergence application) ([15]; 0.025 kg/ha): 0 (0 - No effect) | Assessment rating ZEAMX (pre-emergence application) ([15]; 0.100 kg/ha): 1 (1 - Trace effect) | Assessment rating ZEAMX (pre-emergence application) ([15]; 0.400 kg/ha): 2 (2 - Slight effect) | Assessment rating STEME (pre-emergence application) ([16]; 0.013 kg/ha): 0 (0 - No effect) | Assessment rating STEME (pre-emergence application) ([16]; 0.025 kg/ha): 8 (8 - Approaching complete kill) | Assessment rating STEME (pre-emergence application) ([16]; 0.100 kg/ha): 8 (8 - Approaching complete kill) | Assessment rating STEME (pre-emergence application) ([16]; 0.400 kg/ha): 9 (9 - Complete kill) | Assessment rating AMBEL (pre-emergence application) ([17]; 0.013 kg/ha): 0 (0 - No effect) | Assessment rating AMBEL (pre-emergence application) ([17]; 0.025 kg/ha): 4 (4 - Injury)
